Test results: patent US8673919B2, “Dihydropyridin sulfonamides and dihydropyridin sulfamides as MEK inhibitors” (Ardea Biosciences, Inc., priority 2009, dated 2014)

Experiments:
[1] = target: T1, MEK1 (Homo sapiens, UniProt Q02750); experiment: MEK1 Activation Kinase Assay (HTRF; Cot1 phosphorylation of GST-MEK1); assay type: biochemical; conditions: activation of GST-MEK1 by Cot1, HTRF, 10 min pre-incubation, 20 min reaction at 22° C.
T1 construct: purchased Millipore 14-420
Description: The kinase Cot1 activates MEK1 by phosphorylating its activation loop. The inhibitory activity of compounds of the present invention on this activation of MEK1 was quantified employing the HTRF assay described in the following paragraphs.
N-terminally His6-tagged recombinant kinase domain of the human Cot1 (amino acids 30-397, purchased from Millipore, cat. no 14-703) expressed in insect cells (SF21) and purified by Ni-NTA affinity chromatography was used as kinase. As substrate for the kinase reaction the unactive C-terminally His6-tagged GST-MEK1 fusion protein (Millipore cat. no 14-420) was used.
For the assay 50 nl of a 100 fold concentrated solution of the test compound in DMSO was pipetted into a black low volume 384 well microtiter plate (Greiner Bio-One, Frickenhausen, Germany), 3 μl of a solution of 24 nM GST-MEK1 and 166.7 μM adenosine-tri-phosphate (ATP) in assay buffer [50 mM Tris/HCl pH 7.5, 10 mM MgCl2, 2 mM dithiothreitol, 0.01% (v/v) Igepal CA 630 (Sigma), 5 mM β-phospho-glycerol] were added and the mixture was incubated for 10 min at 22° C. to allow pre-binding of the test compounds to the GST-MEK1 before the start of the kinase reaction. Then the kinase reaction was started by the addition of 2 μl of a solution of Cot1 in assay buffer and the resulting mixture was incubated for a reaction time of 20 min at 22° C. The concentration of Cot1 in the assay was adjusted depending of the activity of the enzyme lot and was chosen appropriate to have the assay in the linear range, typical enzyme concentrations were in the range of about 2 ng/μl (final conc. in the 5 μl assay volume). The reaction was stopped by the addition of 5 μl of a solution of HTRF detection reagents (13 nM anti GST-XL665 [#61 GSTXLB, Fa. Cis Biointernational, Marcoule, France], 1 nM Eu-cryptate labelled anti-phospho-MEK 1/2 (Ser217/221) [#61P17KAZ, Fa. Cis Biointernational],) in an aqueous EDTA-solution (100 mM EDTA, 500 mM KF, 0.2% (w/v) bovine serum albumin in 100 mM HEPES/NaOH pH 7.5).
The resulting mixture was incubated 2 h at 22° C. to allow the binding of the phosphorylated GST-MEK1 to the anti-GST-XL665 and the Eu-cryptate labelled anti-phospho-MEK 1/2 antibody. Subsequently the amount of Ser217/Ser221-phosphorylated substrate was evaluated by measurement of the resonance is energy transfer from the Eu-Cryptate-labelled anti-phospho-MEK antibody to the anti-GST-XL665. Therefore, the fluorescence emissions at 620 nm and 665 nm after excitation at 350 nm was measured in a HTRF reader, e.g. a Rubystar (BMG Labtechnologies, Offenburg, Germany) or a Viewlux (Perkin-Elmer). The ratio of the emissions at 665 nm and at […] was taken as the measure for the amount of phosphorylated substrate. The data were normalised (enzyme reaction without inhibitor=0% inhibition, all other assay components but no enzyme=100% inhibition).

[2] = test system: A375 cells; experiment: A375 Crystal Violet (CV) Proliferation Assay; assay type: cell-based; conditions: A375 human melanoma cells, mutant BRAF V600E, crystal violet staining, 4 days
Procedure: Cell proliferation for A375 cells [human melanoma cell line, expressing mutant BRAF V600E] was measured by crystal violet (CV) staining: Cultivated human A375 cells were plated out in a density of 1500 cells/measurement point in 200 μl of growth medium (DMEM/HAMS F12 with 10% FBS and 2 mM Glutamine) in a 96-well multititer plate. After 24 hours, the cells from a plate (zero plate) were stained with crystal violet (see below), while the medium in the other plates was replaced by fresh culture medium (200 μl) to which the test substances had been added in various concentrations (0 μM, and in the range 0.3 nM-30 μM; the final concentration of the solvent dimethyl sulphoxide was 0.5%). The cells were incubated in the presence of the test substances for 4 days. The cell proliferation was determined by staining the cells with crystal violet: the cells were fixed by adding 20 μl/measurement point of an 11% glutaraldehyde solution at room temperature for 15 min. After the fixed cells had been washed three times with water, the plates were dried at room temperature. The cells were stained by adding 100 μl/measurement point of a 0.1% crystal violet solution (pH adjusted to pH 3 by adding acetic acid). After the stained cells had been washed three times with water, the plates were dried at room temperature. The dye was dissolved by adding 100 μl/measurement point of a 10% acetic acid solution, and the extinction was determined by photometry at a wavelength of 595 nm. The percentage change in cell growth was calculated by normalizing the measurements to the extinctions of the zero point plate (=0%) and the extinction of the untreated (0 μM) cells (=100%). The IC50 values were determined by means of a 4-parameter fit using the company's own software.

[3] = test system: HCT116 cells; experiment: HCT116 Cell Titer Glo (CTG) Proliferation Assay; assay type: cell-based; conditions: HCT116 human colorectal cells
Procedure: (§1) HCT116 cells [human colorectal cell line, expressing […]] were plated at a density of 3000 cells/well in 96 well black-clear bottom tissue culture plates (Costar 3603 black/clear bottom) in 100 μl/well DMEM medium (DMEM/Ham's F12) with 10% Fetal Bovine Serum (FBS) and stable Glutamine incubated at 37° C. Sister wells were plated in separate plate for time zero determination. All plates were incubated overnight at 37° C. Take down time zero plate: 100 μl/well CTG solution (Promega Cell Titer Glo solution) were added to time zero wells in sister plate; the plates were mixed for 2 min on orbital shaker to ensure cell lysis, incubated for 10 minutes, luminescence was read on VICTOR3 (Perkin Elmer). Twenty-four hours after cell seeding, test compounds were diluted in 50 μl medium and were added at a final concentration range from as high 10 μM to as low […] depending on the activities of the tested compounds in serial dilutions at a final DMSO concentration of 0.4%. Cells were incubated for 72 hours at 37° C. after addition of the test compound. Then, using a Promega Cell Titer Glo Luminescent® assay kit, 100 μl microliter lysis buffer containing of the enzyme luciferase and its substrate, luciferin mixture, were added to each well and incubated for 10 min at room temperature in the dark to stabilize luminescence signal. The samples were read on VICTOR3 (Perkin Elmer) using Luminescence protocol. The percentage change in cell growth was calculated by normalizing the measurements to the extinctions of the zero point plate (=0%) and the extinction of the untreated (0 μM) cells (=100%). The IC50 values were determined by means of a 4-parameter fit using the company's own software.

[4] = test system: A549 cells; experiment: A549 Cell Titer Glo (CTG) Proliferation Assay; assay type: cell-based; conditions: A549 human non small cell lung cancer cells, mutant K-Ras G12S
Procedure: as §1
A549 cells [human non small cell lung cancer cell line, expressing mutant K-Ras G12S] were seeded at a density of 2000 cells/well in 96 well black-clear bottom tissue culture plates (Costar 3603 black/clear bottom) in 100 μl/well DMEM medium (DMEM/Ham's F12) with 10% Fetal Bovine Serum (FBS) and stable Glutamine incubated at 37° C. Cell Titer Glo proliferation assays for A549 cells were performed with the same protocol as described afore for HCT116 cells.

T1 sequence (Q02750 whole entry): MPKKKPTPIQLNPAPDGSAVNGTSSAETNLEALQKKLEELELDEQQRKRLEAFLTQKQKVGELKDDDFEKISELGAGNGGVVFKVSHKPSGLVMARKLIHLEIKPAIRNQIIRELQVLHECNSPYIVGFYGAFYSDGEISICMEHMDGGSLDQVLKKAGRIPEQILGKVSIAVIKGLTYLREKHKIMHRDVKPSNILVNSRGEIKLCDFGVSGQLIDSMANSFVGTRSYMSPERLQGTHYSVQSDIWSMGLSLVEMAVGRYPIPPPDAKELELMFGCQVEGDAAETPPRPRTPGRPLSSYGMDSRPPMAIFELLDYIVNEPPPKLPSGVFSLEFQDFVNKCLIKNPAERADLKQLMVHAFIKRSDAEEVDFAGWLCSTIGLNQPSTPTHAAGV

Compound: Cc1cc(NS(=O)(=O)C2(CC(O)CO)CC2)c(Nc2ccc(I)cc2F)n(C)c1=O (racemic) [Example 2, 1-(2,3-dihydroxypropyl)-N-(2-(2-fluoro-4-iodophenylamino)-1,5-dimethyl-6-oxo-1,6-dihydropyridin-3-yl)cyclopropane-1-sulfonamide]
- IC50 [1]: 0.0115 µM
- IC50 ([2]; Homo sapiens, A-375, 96 h): 0.017 µM

Compound: Cn1c(Nc2ccc(I)cc2F)c(NS(=O)(=O)C2(CC(O)CO)CC2)cc(F)c1=O (racemic) [Example 9, 1-(2,3-dihydroxypropyl)-N-{5-fluoro-2-[(2-fluoro-4-iodophenyl)amino]-1-methyl-6-oxo-1,6-dihydropyridin-3-yl}cyclopropanesulfonamide]
- IC50 [1]: 0.0211 µM
- IC50 ([3]; Homo sapiens, HCT-116, 72 h): 0.3 µM
- IC50 ([2]; Homo sapiens, A-375, 96 h): 0.0255 µM
- IC50 ([4]; Homo sapiens, A549, 72 h): 0.7 µM

Compound: Cn1c(Nc2ccc(I)cc2F)c(NS(=O)(=O)C2(CC(O)CO)CC2)ccc1=O (single isomer, unassigned) [Example 6A, 1-(2,3-dihydroxypropyl)-N-{2-[(2-fluoro-4-iodophenyl)amino]-1-methyl-6-oxo-1,6-dihydropyridin-3-yl}cyclopropanesulfonamide]
- IC50 [1]: 0.0104 µM
- IC50 ([3]; 72 hours): 0.119 µM
- IC50 [2]: 0.0178 µM
- IC50 ([4]; 72 hours): 0.481 µM

Compound: Cn1c(Nc2ccc(I)cc2F)c(NS(=O)(=O)C2(CC(O)CO)CC2)ccc1=O (single isomer, unassigned) [Example 6B, 1-(2,3-dihydroxypropyl)-N-{2-[(2-fluoro-4-iodophenyl)amino]-1-methyl-6-oxo-1,6-dihydropyridin-3-yl}cyclopropanesulfonamide]
- IC50 [1]: 0.0166 µM
- IC50 ([3]; 72 hours): 0.0545 µM
- IC50 [2]: 0.00774 µM
- IC50 ([4]; 72 hours): 0.203 µM

Compound: Cc1cc(NS(=O)(=O)C2CC2)c(Nc2ccc(I)cc2F)n(C)c1=O [Example 1, N-(2-(2-fluoro-4-iodophenylamino)-1,5-dimethyl-6-oxo-1,6-dihydropyridin-3-yl) cyclopropanesulfonamide]
- IC50 [1]: 0.0121 µM

Compound: Cc1cc(NS(=O)(=O)C2(CCO)CC2)c(Nc2ccc(I)cc2F)n(C)c1=O [Example 3, N-(2-(2-fluoro-4-iodophenylamino)-1,5-dimethyl-6-oxo-1,6-dihydropyridin-3-yl)-1-(2-hydroxyethyl)cyclopropane-1-sulfonamide]
- IC50 [1]: 0.00897 µM
- IC50 ([2]; Homo sapiens, A-375, 96 h): 0.015 µM

Compound: Cn1c(Nc2ccc(I)cc2F)c(NS(=O)(=O)C2CC2)ccc1=O [Example 5, N-{2-[(2-fluoro-4-iodophenyl)amino]-1-methyl-6-oxo-1,6-dihydropyridin-3-yl}cyclopropanesulfonamide]
- IC50 [1]: 0.0099 µM
- IC50 ([3]; Homo sapiens, HCT-116, 72 h): 0.0901 µM
- IC50 ([2]; Homo sapiens, A-375, 96 h): 0.00294 µM
- IC50 ([4]; Homo sapiens, A549, 72 h): 0.206 µM

Compound: Cn1c(Nc2ccc(I)cc2F)c(NS(=O)(=O)C2(CCO)CC2)ccc1=O [Example 7, N-{2-[(2-fluoro-4-iodophenyl)amino]-1-methyl-6-oxo-1,6-dihydropyridin-3-yl}-1-(2-hydroxyethyl)cyclopropanesulfonamide]
- IC50 [1]: 0.00836 µM
- IC50 ([3]; Homo sapiens, HCT-116, 72 h): 0.117 µM
- IC50 ([2]; Homo sapiens, A-375, 96 h): 0.0047 µM
- IC50 ([4]; Homo sapiens, A549, 72 h): 0.254 µM

Compound: Cn1c(Nc2ccc(I)cc2F)c(NS(=O)(=O)C2CC2)cc(F)c1=O [Example 8, N-{5-fluoro-2-[(2-fluoro-4-iodophenyl)amino]-1-methyl-6-oxo-1,6-dihydropyridin-3-yl}cyclopropanesulfonamide]
- IC50 [1]: 0.0153 µM
- IC50 ([3]; Homo sapiens, HCT-116, 72 h): 0.59 µM
- IC50 ([2]; Homo sapiens, A-375, 96 h): 0.0266 µM
- IC50 ([4]; Homo sapiens, A549, 72 h): 0.93 µM

Compound: Cn1c(Nc2ccc(I)cc2F)c(NS(=O)(=O)C2(CCO)CC2)cc(F)c1=O [Example 10, N-{5-fluoro-2-[(2-fluoro-4-iodophenyl)amino]-1-methyl-6-oxo-1,6-dihydropyridin-3-yl}-1-(2-hydroxyethyl)cyclopropanesulfonamide]
- IC50 [1]: 0.0382 µM
- IC50 ([3]; Homo sapiens, HCT-116, 72 h): 0.36 µM
- IC50 ([2]; Homo sapiens, A-375, 96 h): 0.0229 µM
- IC50 ([4]; Homo sapiens, A549, 72 h): 0.73 µM
